For data set [1], the target named is wild-type EGFR kinase (Homo sapiens (Human), UniProt P00533). Put plainly: Wild type EGFR kinase inhibition test (z-lyte). It is filed as biochemical. Particulars: 10 μM ATP; read-out: EGFR WT IC50. Summed up:
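Z-lyte FRET read-out, emission ratio coumarin 450 nm/fluorescein 520 nm converted to phosphorylation ratio, then inhibition relative to control. IC50 obtained by curve fitting.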

Data set [2] in a line: in vivo. To be noted: mouse, in vivo, po, 30 mg/kg. The method, boiled down:
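Fasted male ICR mice received 30 mg/kg intragastrically, formulated in 5% DMSO / 95% pH 4.5 acetate buffer with 20% 2-hydroxypropyl-β-cyclodextrin. Plasma was sampled at 0.083–24 h (alternating groups of three) and analysed by LC-MS/MS after acetonitrile precipitation; the calibration range was 1.00-3000 ng/mL.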

Data set [3] addresses βBTK Y223 (Homo sapiens (Human), UniProt Q06187). Put plainly: Intracellular βBTK Y223 phosphorylation HTRF in Ramos cells. It is filed as cell-based. The method, then:
The compound was predissolved in 100% DMSO. […] 20 μl of lysate (4× lysate: blocked mother liquor is 25:1) was added to each well and incubated for 30 minutes at 25° C. on a shaker. It was shaken on an oscillator at 800 rpm for 1 minute. […] The half-inhibitory concentration IC50 was calculated by fitting with XLFIT 5.0 software (IDBS, UK).
Background: TR-FRET usually uses a lanthanide donor and a delayed reading to cut background.

The target in data set [4] is BTK WT (Homo sapiens (Human), UniProt Q06187). Nature of the data set: Lantha screening kinase reaction, inhibition of BTK WT. Type of data set: biochemical. Summed up:
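Wild-type BTK kinase reaction with compound at 10-0.005 μM final, 60 minutes at 25° C in the dark; stopped with 5 mM EDTA plus 0.2 nM Tb PY20 antibody, 30 minutes. TR-FRET 520/500 nm ratio gave inhibition versus enzyme-only and blank wells; IC50 from curve fitting.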

One may read the IC50 as the midpoint of a concentration-inhibition curve. What is called Tmax is the time at which the peak concentration occurs. By AUC is commonly meant concentration integrated over time. A lower AUC goes with low exposure. The term Cmax denotes the maximum level reached in the sampled fluid or tissue. As usually defined, the bioavailability is the share of a dose that reaches the circulation, judged against a reference dose that is usually intravenous. For orientation: half-life means the time in which the quantity being followed falls by half.

Chain of wild-type EGFR kinase (P00533 25-1210): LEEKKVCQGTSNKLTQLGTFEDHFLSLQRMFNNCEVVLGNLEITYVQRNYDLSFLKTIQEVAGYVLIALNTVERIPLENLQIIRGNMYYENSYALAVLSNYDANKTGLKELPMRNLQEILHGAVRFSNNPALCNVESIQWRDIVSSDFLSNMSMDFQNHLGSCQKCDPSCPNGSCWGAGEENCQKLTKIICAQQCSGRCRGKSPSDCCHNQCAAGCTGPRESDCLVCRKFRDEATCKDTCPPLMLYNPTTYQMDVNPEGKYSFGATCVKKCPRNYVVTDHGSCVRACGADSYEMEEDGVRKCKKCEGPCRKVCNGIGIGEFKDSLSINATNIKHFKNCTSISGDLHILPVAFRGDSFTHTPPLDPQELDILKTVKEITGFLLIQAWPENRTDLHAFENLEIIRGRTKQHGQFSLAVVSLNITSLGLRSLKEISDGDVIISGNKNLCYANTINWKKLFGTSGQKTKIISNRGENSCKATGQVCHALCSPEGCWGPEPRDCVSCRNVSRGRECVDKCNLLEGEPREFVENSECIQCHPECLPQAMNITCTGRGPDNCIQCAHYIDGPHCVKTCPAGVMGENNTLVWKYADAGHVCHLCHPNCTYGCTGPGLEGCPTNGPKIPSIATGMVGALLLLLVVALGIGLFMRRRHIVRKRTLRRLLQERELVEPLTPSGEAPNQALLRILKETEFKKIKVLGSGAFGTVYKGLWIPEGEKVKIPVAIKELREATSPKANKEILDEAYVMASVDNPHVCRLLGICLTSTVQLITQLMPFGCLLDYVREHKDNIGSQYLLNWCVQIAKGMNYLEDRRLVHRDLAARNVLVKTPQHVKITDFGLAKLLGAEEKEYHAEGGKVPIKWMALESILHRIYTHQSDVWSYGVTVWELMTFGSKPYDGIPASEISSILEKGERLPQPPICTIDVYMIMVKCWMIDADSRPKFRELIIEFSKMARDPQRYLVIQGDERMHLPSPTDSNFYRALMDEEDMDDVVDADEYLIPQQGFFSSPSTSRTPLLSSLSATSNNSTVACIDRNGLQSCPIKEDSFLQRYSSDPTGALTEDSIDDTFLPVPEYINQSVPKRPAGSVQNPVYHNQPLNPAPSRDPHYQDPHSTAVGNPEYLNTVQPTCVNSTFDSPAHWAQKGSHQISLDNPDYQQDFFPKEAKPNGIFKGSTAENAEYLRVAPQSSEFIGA
Chain of βBTK Y223 (Q06187 whole entry): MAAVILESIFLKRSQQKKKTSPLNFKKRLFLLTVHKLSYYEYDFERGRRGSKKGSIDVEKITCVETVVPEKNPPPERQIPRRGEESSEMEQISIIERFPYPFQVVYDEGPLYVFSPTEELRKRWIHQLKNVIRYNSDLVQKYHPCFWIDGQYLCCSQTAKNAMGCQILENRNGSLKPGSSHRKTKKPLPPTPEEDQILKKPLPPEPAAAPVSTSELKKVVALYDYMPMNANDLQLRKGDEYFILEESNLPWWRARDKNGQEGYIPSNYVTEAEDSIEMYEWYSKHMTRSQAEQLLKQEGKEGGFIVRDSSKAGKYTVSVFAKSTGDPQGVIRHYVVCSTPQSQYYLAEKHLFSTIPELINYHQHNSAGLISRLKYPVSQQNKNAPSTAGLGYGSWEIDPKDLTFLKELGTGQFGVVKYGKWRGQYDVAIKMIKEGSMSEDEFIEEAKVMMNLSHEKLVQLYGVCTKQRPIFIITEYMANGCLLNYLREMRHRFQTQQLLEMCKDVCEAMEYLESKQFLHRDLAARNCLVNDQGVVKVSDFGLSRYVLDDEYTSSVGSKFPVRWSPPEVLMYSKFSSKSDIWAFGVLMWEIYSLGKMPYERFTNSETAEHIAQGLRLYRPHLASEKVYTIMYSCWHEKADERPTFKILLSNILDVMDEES
Chain of BTK WT (Q06187 whole entry): as above

As to `C=CC(=O)N1CCCC(Nc2nc(Nc3ccc(N4CCOCC4)cc3)c3c(c2F)CNC3=O)C1` (stereo not drawn) [Compound G-14], the 50% inhibitory concentration (IC50) in data set [1] stood at 4130 nM. Further, in data set [2], the “Area under curve AUC” value came out at 1072 ng·h/mL, the “Maximum blood concentration Cmax” value is given as 1240.0 ng/mL, the “Oral relative bioavailability F (%)” value was determined as 13.7% and the “Tmax” value came out at 4.8 min. Also, the “half-time T1/2” value in data set [2] worked out at 148 min. In data set [3], this molecule displayed a half-maximal inhibitory concentration (IC50) of 3 nM. Also, the IC50 in data set [4] worked out at 3 nM.
For the molecule `C=CC(=O)N1CCCC(Nc2nc(-c3cnn(C)c3)c3c(c2F)CNC3=O)C1` (stereo not drawn) [Compound G-7, 6-(1-acryloylpiperidin-3-ylamino)-7-fluoro-4-(1-methyl-1H-pyrazole-4-yl)-1H-pyrrolo[3,4-c]pyridine-3(2H)-one], the IC50 in data set [1] was 3950 nM. Moreover, in data set [2] (male, ICR), the area under the curve (AUC) was 1330 ng·h/mL, the Cmax was 1830 ng/mL, the Tmax was found to be 4.8 min and the bioavailability worked out at 25.4%. Besides, the half-life in data set [2] (male, ICR) is 93 min. The midpoint of inhibition in data set [3], the IC50, lay at 11 nM. In addition, in data set [4], the IC50 stood at 35 nM.
Take `C=CC(=O)N1CCCC(Nc2nc(Nc3ccc(N4CCOCC4)c(Cl)c3)c3c(c2F)CNC3=O)C1` (stereo not drawn) [Compound G-39]: the IC50 in data set [1] was 6310 nM. Also, in data set [2], the “Area under curve AUC” value is 1182 ng·h/mL, the “Maximum blood concentration Cmax” value is 1501.0 ng/mL, the “Oral relative bioavailability F (%)” value is 15.2% and the “Tmax” value was determined as 4.8 min. For the same molecule, in data set [2], the “half-time T1/2” value came to 138 min. Besides, the IC50 in data set [3] was 3 nM. The molecule also showed a half-inhibitory concentration (IC50) in data set [4] of 2 nM.
Turning to `C=CC(=O)N1CCCC(N(C)c2nc(Nc3ccc(N4CCOCC4)cc3)c3c(c2F)CNC3=O)C1` (stereo not drawn) [Compound G-71, 6-((1-acryloylpiperidin-3-yl)(methyl)amino)-7-fluoro-4-(4-morpholin)-1H-pyrrolo[3,4-c]pyridine-3 (2H)-one], in data set [1], the IC50 came out at 1590 nM. Also, in data set [2] (male, ICR), the AUC is 606 ng·h/mL, the maximum concentration (Cmax) amounted to 533 ng/mL, the time of peak concentration (Tmax) is 4.8 min and the bioavailability stood at 7.4%. In data set [2] (male, ICR), this molecule had a half-life of 679 min. The “efficacy of the compound in mice compared with the compound without substituent on the nitrogen atom attached to the piperidine ring” value in data set [2] was “significantly lower”. Further, it took 3 nM to reach half-maximal inhibition in data set [3] (IC50). The molecule further had a half-maximal inhibitory concentration (IC50) in data set [4] of 5 nM.

The values are drawn from patent US11155546B2, “4,6,7-trisubstituted 1,2-dihydropyrrolo[3,4-c]pyridin/pyrimidin-3-one derivatives and uses thereof” (SHANGHAI HAIYAN PHARMACEUTICAL TECHNOLOGY CO., LTD., priority 2017, dated 2021).
